Measurements published in US8816085B2 (Takeda GmbH, priority 2009, dated 2014).

What follows are compounds tested against T1, PDE5A1 (human PDE5 from platelets) (Homo sapiens, UniProt O76074) (assay: Inhibition of type 5 phosphodiesterase (PDE5) activity, modified SPA test). Conditions: PDE5-containing human platelet lysate, 0.5 μM cGMP, value classes, read-out: PDE5A1 inhibitory values [measured as −logIC50 (mol/l)] (converted).
T1 construct: from tissue; host or cells: platelets from fresh blood of human donors (10,000 g supernatant of sonified platelets)
Assay type: biochemical
In short: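 Enzyme source: human platelet lysate (10,000 g supernatant), with 1 μM motapizone and 10 nM PDE2 inhibitor present. SPA format in 20 mM Tris pH 7.4, 5 mM Mg2+, 0.5 μM cGMP with [3H]cGMP tracer; 5 min preincubation at 37 °C, 15 min reaction, stopped with IBMX-containing beads. IC50 by non-linear regression.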

Row | SMILES | IC50
1 | CCC(=O)N1CCC(NC(=O)c2c(C)[nH]c3c(-c4cc(C)ccc4OCC4CC4)ccnc23)CC1 [Example E53, 7-[2-(Cyclopropylmethoxy)-5-methylphenyl]-2-methyl-N-(1-propanoylpiperidin-4-yl)-1H-pyrrolo[3,2-b]pyridine-3-carboxamide] | 1 to 10 nM
2 | CCC(=O)N[C@H]1CC[C@@H](NC(=O)c2c(C)[nH]c3c(-c4cc(F)c(OC)cc4OCC4CC4)ccnc23)CC1 [Example E83, 7-[2-(Cyclopropylmethoxy)-5-fluoro-4-methoxyphenyl]-2-methyl-N-[cis-4-(propionylamino)cyclohexyl]-1H-pyrrolo[3,2-b]pyridine-3-carboxamide] | < 1 nM
3 | COCC(=O)N1CCC(NC(=O)c2c(C)[nH]c3c(-c4cc(F)c(OC)cc4OCC4CC4)ccnc23)CC1 [Example E78, 7-[2-(Cyclopropylmethoxy)-5-fluoro-4-methoxyphenyl]-N-[1-(methoxyacetyl)piperidin-4-yl]-2-methyl-1H-pyrrolo[3,2-b]pyridine-3-carboxamide] | < 1 nM
4 | COCC(=O)N[C@H]1CC[C@H](NC(=O)c2c(C)[nH]c3c(-c4cc(F)ccc4OCC4CC4)ccnc23)CC1 [Example E24, 7-[2-(Cyclopropylmethoxy)-5-fluorophenyl]-N-{trans-4-[(methoxyacetyl)amino]cyclohexyl}-2-methyl-1H-pyrrolo[3,2-b]pyridine-3-carboxamide] | < 1 nM
5 | CCOC(=O)N1CCC(NC(=O)c2c(C)[nH]c3c(-c4c(OCC5CC5)ccc5c4OCO5)ccnc23)CC1 [Example E04, Ethyl 4-[({7-[5-(cyclopropylmethoxy)-1,3-benzodioxol-4-yl]-2-methyl-1H-pyrrolo[3,2-b]pyridin-3-yl}carbonyl)amino]piperidine-1-carboxylate] | < 1 nM
6 | CCC(=O)N1CCC(NC(=O)c2c(C)[nH]c3c(-c4cc(OC)ccc4OCC4CC4)ccnc23)CC1 [Example E41, 7-[2-(cyclopropylmethoxy)-5-methoxyphenyl]-2-methyl-N-(1-propanoylpiperidin-4-yl)-1H-pyrrolo[3,2-b]pyridine-3-carboxamide] | < 1 nM
7 | CCC(=O)N1CCC(NC(=O)c2c(C)[nH]c3c(-c4cc(F)c(OC)cc4OCC4CC4)ccnc23)CC1 [Example E77, 7-[2-(Cyclopropylmethoxy)-5-fluoro-4-methoxyphenyl]-2-methyl-N-(1-propionylpiperidin-4-yl)-1H-pyrrolo[3,2-b]pyridine-3-carboxamide] | < 1 nM
8 | CC(=O)N[C@H]1CC[C@H](NC(=O)c2c(C)[nH]c3c(-c4c(OCC5CC5)ccc5c4OCO5)ccnc23)CC1 [Example E05, N-(trans-4-Acetamidocyclohexyl)-7-[5-(cyclopropylmethoxy)-1,3-benzodioxol-4-yl]-2-methyl-1H-pyrrolo[3,2-b]pyridine-3-carboxamide] | < 1 nM
9 | CCC(=O)N[C@H]1CC[C@H](NC(=O)c2c(C)[nH]c3c(-c4ccc(F)cc4OCC4CC4)ccnc23)CC1 [Example E14] | < 1 nM
10 | CCC(=O)N[C@H]1CC[C@@H](NC(=O)c2c(C)[nH]c3c(-c4cc(OC)c(F)cc4OCC4CC4)ccnc23)CC1 [Example E68, 7-[2-(Cyclopropylmethoxy)-4-fluoro-5-methoxyphenyl]-2-methyl-N-[cis-4-(propanoylamino)cyclohexyl]-1H-pyrrolo[3,2-b]pyridine-3-carboxamide] | < 1 nM
11 | COc1ccc(-c2ccnc3c(C(=O)N[C@H]4CC[C@H](NC(C)=O)CC4)c(C)[nH]c23)c(OCC2CC2)c1 [Example E34, N-[trans-4-(Acetylamino)cyclohexyl]-7-[2-(cyclopropylmethoxy)-4-methoxyphenyl]-2-methyl-1H-pyrrolo[3,2-b]pyridine-3-carboxamide] | < 1 nM
12 | COCC(=O)N1CCC(NC(=O)c2c(C)[nH]c3c(-c4c(OCC5CC5)ccc5c4OCO5)ccnc23)CC1 [Example E03, 7-[5-(Cyclopropylmethoxy)-1,3-benzodioxol-4-yl]-N-[1-(methoxyacetyl)piperidin-4-yl]-2-methyl-1H-pyrrolo[3,2-b]pyridine-3-carboxamide] | < 1 nM
13 | CC(=O)N1CCC(NC(=O)c2c(C)[nH]c3c(-c4cc(F)ccc4OCC4CC4)ccnc23)CC1 [Example E19, N-(1-Acetylpiperidin-4-yl)-7-[2-(cyclopropylmethoxy)-5-fluorophenyl]-2-methyl-1H-pyrrolo[3,2-b]pyridine-3-carboxamide] | 1 to 10 nM
14 | CCC(=O)N[C@H]1CC[C@H](NC(=O)c2c(C)[nH]c3c(-c4cc(OC)ccc4OCC4CC4)ccnc23)CC1 [Example E44, 7-[2-(Cyclopropylmethoxy)-5-methoxyphenyl]-2-methyl-N-[trans-4-(propanoylamino)cyclohexyl]-1H-pyrrolo[3,2-b]pyridine-3-carboxamide] | < 1 nM
15 | CC(=O)N1CCC(NC(=O)c2c(C)[nH]c3c(-c4ccc(F)cc4OCC4CC4)ccnc23)CC1 [Example E10, N-(1-Acetylpiperidin-4-yl)-7-[2-(cyclopropylmethoxy)-4-fluorophenyl]-2-methyl-1H-pyrrolo[3,2-b]pyridine-3-carboxamide] | < 1 nM
16 | CCC(=O)N[C@H]1CC[C@H](NC(=O)c2c(C)[nH]c3c(-c4cc(C)ccc4OCC4CC4)ccnc23)CC1 [Example E56, 7-[2-(Cyclopropylmethoxy)-5-methylphenyl]-2-methyl-N-[trans-4-(propanoylamino)cyclohexyl]-1H-pyrrolo[3,2-b]pyridine-3-carboxamide] | 1 to 10 nM
17 | COc1ccc(OCC2CC2)c(-c2ccnc3c(C(=O)NC4CCN(C(C)=O)CC4)c(C)[nH]c23)c1 [Example E40, N-(1-Acetylpiperidin-4-yl)-7-[2-(cyclopropylmethoxy)-5-methoxyphenyl]-2-methyl-1H-pyrrolo[3,2-b]pyridine-3-carboxamide] | < 1 nM
18 | COCC(=O)N1CCC(NC(=O)c2c(C)[nH]c3c(-c4cc(C)ccc4OCC4CC4)ccnc23)CC1 [Example E54, 7-[2-(Cyclopropylmethoxy)-5-methylphenyl]-N-[1-(methoxyacetyl)piperidin-4-yl]-2-methyl-1H-pyrrolo[3,2-b]pyridine-3-carboxamide] | 1 to 10 nM

Now from value to compound:

Row | IC50 | SMILES
19 | < 1 nM | Cc1[nH]c2c(-c3cc(F)ccc3OCC3CC3)ccnc2c1C(=O)N[C@H]1CC[C@H](NC(=O)CO)CC1 [Example F14, 7-[2-(Cyclopropylmethoxy)-5-fluorophenyl]-N-{trans-4-[(hydroxyacetyl)amino]cyclohexyl}-2-methyl-1H-pyrrolo[3,2-b]pyridine-3-carboxamide]
20 | < 1 nM | Cc1[nH]c2c(-c3c(OCC4CC4)ccc4c3OCO4)ccnc2c1C(=O)N[C@H]1CC[C@@H](NC(=O)[C@H](C)O)CC1 [Example F05, 7-[5-(Cyclopropylmethoxy)-1,3-benzodioxol-4-yl]-N-(cis-4-{[(2S)-2-hydroxypropanoyl]amino}cyclohexyl)-2-methyl-1H-pyrrolo[3,2-b]pyridine-3-carboxamide]
21 | 1 to 10 nM | COc1ccc(OCC2CC2)c(-c2ccnc3c(C(=O)N[C@@H]4CN(C(=O)CO)C[C@H]4O)c(C)[nH]c23)c1 (relative stereo) [Example F32, 7-[2-(Cyclopropylmethoxy)-5-methoxyphenyl]-N-[(3R*,4R*)-4-hydroxy-1-(hydroxyacetyl)pyrrolidin-3-yl]-2-methyl-1H-pyrrolo[3,2-b]pyridine-3-carboxamide]
22 | < 1 nM | COc1cc(-c2ccnc3c(C(=O)N[C@@H]4CCN(C(=O)CO)C[C@H]4O)c(C)[nH]c23)c(OCC2CC2)cc1F (relative stereo) [Example F48, 7-[2-(Cyclopropylmethoxy)-4-fluoro-5-methoxyphenyl]-N-[(3R*,4R*)-3-hydroxy-1-(hydroxyacetyl)piperidin-4-yl]-2-methyl-1H-pyrrolo[3,2-b]pyridine-3-carboxamide]
23 | 1 to 10 nM | Cc1[nH]c2c(-c3cc(F)ccc3OCC3CC3)ccnc2c1C(=O)NC1CCN(C(=O)[C@H](C)O)CC1 [Example F13, 7-[2-(Cyclopropylmethoxy)-5-fluorophenyl]-N-{1-[(2S)-2-hydroxypropanoyl]piperidin-4-yl}-2-methyl-1H-pyrrolo[3,2-b]pyridine-3-carboxamide]
24 | < 1 nM | COc1cc(OCC2CC2)c(-c2ccnc3c(C(=O)NC4CCN(C(=O)CO)CC4)c(C)[nH]c23)cc1F [Example F50, 7-[2-(Cyclopropylmethoxy)-5-fluoro-4-methoxyphenyl]-N-(1-glycoloylpiperidin-4-yl)-2-methyl-1H-pyrrolo[3,2-b]pyridine-3-carboxamide]
25 | < 1 nM | COc1cc(-c2ccnc3c(C(=O)N[C@@H]4CN(C(=O)CO)C[C@H]4O)c(C)[nH]c23)c(OCC2CC2)cc1F (relative stereo) [Example F46, 7-[2-(Cyclopropylmethoxy)-4-fluoro-5-methoxyphenyl]-N-[(3R*,4R*)-4-hydroxy-1-(hydroxyacetyl)pyrrolidin-3-yl]-2-methyl-1H-pyrrolo[3,2-b]pyridine-3-carboxamide]
26 | < 1 nM | Cc1[nH]c2c(-c3c(OCC4CC4)ccc4c3OCO4)ccnc2c1C(=O)N[C@H]1CC[C@@H](NC(=O)CO)CC1 [Example F04, 7-[5-(Cyclopropylmethoxy)-1,3-benzodioxol-4-yl]-N-[cis-4-(glycoloylamino)cyclohexyl]-2-methyl-1H-pyrrolo[3,2-b]pyridine-3-carboxamide]
27 | < 1 nM | COc1ccc(-c2ccnc3c(C(=O)N[C@H]4CC[C@@H](NC(=O)CO)CC4)c(C)[nH]c23)c(OCC2CC2)c1 [Example F24, 7-[2-(Cyclopropylmethoxy)-4-methoxyphenyl]-N-{cis-4-[(hydroxyacetyl)amino]cyclohexyl}-2-methyl-1H-pyrrolo[3,2-b]pyridine-3-carboxamide]
28 | 1 to 10 nM | Cc1[nH]c2c(-c3ccc(F)cc3OCC3CC3)ccnc2c1C(=O)NC1CCN(C(=O)[C@H](C)O)CC1 [Example F07, 7-[2-(Cyclopropylmethoxy)-4-fluorophenyl]-N-{1-[(2S)-2-hydroxypropanoyl]piperidin-4-yl}-2-methyl-1H-pyrrolo[3,2-b]pyridine-3-carboxamide]
